PubChem BioAssay (NCI)
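Exposure lasted 48 hours, with cells grown in 96-well plates and compounds tested at five concentrations. At the TGI there is no net growth.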

Columns and labels:
Test in all cases: NCI-60 cell line screen, 48 h
OVCAR-5 ovarian = tested on: OVCAR-5 ovarian
A498 renal = tested on: A498 renal
SN12C renal = tested on: SN12C renal
SNB-19 CNS = tested on: SNB-19 CNS
UO-31 renal = tested on: UO-31 renal
SK-OV-3 ovarian = tested on: SK-OV-3 ovarian
TK-10 renal = tested on: TK-10 renal
IGROV1 ovarian = tested on: IGROV1 ovarian
SF-268 CNS = tested on: SF-268 CNS
HS 578T breast = tested on: HS 578T breast
K-562 leukemia = tested on: K-562 leukemia
HOP-62 NSCLC = tested on: HOP-62 NSCLC
COLO 205 colon = tested on: COLO 205 colon
PC-3 prostate = tested on: PC-3 prostate
HCT-116 colon = tested on: HCT-116 colon
U251 CNS = tested on: U251 CNS
SNB-75 CNS = tested on: SNB-75 CNS
MOLT-4 leukemia = tested on: MOLT-4 leukemia
SK-MEL-5 melanoma = tested on: SK-MEL-5 melanoma
SF-539 CNS = tested on: SF-539 CNS
NCI-H23 lung = tested on: NCI-H23 lung
M14 melanoma = tested on: M14 melanoma
RPMI-8226 leukemia = tested on: RPMI-8226 leukemia
NCI-H522 lung = tested on: NCI-H522 lung
HOP-92 NSCLC = tested on: HOP-92 NSCLC
HCT-15 colon = tested on: HCT-15 colon
A549 NSCLC = tested on: A549 NSCLC
HL-60(TB) leukemia = tested on: HL-60(TB) leukemia
RXF 393 renal = tested on: RXF 393 renal
MDA-MB-231 breast = tested on: MDA-MB-231 breast
SW-620 colon = tested on: SW-620 colon
OVCAR-3 ovarian = tested on: OVCAR-3 ovarian
DU-145 prostate = tested on: DU-145 prostate
SK-MEL-28 melanoma = tested on: SK-MEL-28 melanoma
SK-MEL-2 melanoma = tested on: SK-MEL-2 melanoma
HCC-2998 colon = tested on: HCC-2998 colon
T-47D breast = tested on: T-47D breast
SR leukemia = tested on: SR leukemia
KM12 colon = tested on: KM12 colon
MALME-3M melanoma = tested on: MALME-3M melanoma
CAKI-1 renal = tested on: CAKI-1 renal
MDA-N = tested on: MDA-N
UACC-62 melanoma = tested on: UACC-62 melanoma
MDA-MB-435 = tested on: MDA-MB-435
CCRF-CEM leukemia = tested on: CCRF-CEM leukemia
MCF7 breast = tested on: MCF7 breast
LOX IMVI melanoma = tested on: LOX IMVI melanoma
ACHN renal = tested on: ACHN renal
786-0 renal = tested on: 786-0 renal
UACC-257 melanoma = tested on: UACC-257 melanoma
NCI-H460 lung = tested on: NCI-H460 lung
SF-295 CNS = tested on: SF-295 CNS
EKVX NSCLC = tested on: EKVX NSCLC

Measured: TGI

Cc1ccc(Nc2nc(C)c(C(=O)CC(=O)C(=O)Nc3ccc(Cl)cc3)s2)cc1
> 100 µM: OVCAR-5 ovarian | A498 renal | SN12C renal | SNB-19 CNS | UO-31 renal | SK-OV-3 ovarian | TK-10 renal | IGROV1 ovarian | SF-268 CNS | HS 578T breast | K-562 leukemia | HOP-62 NSCLC | COLO 205 colon | PC-3 prostate | HCT-116 colon | U251 CNS | SNB-75 CNS | MOLT-4 leukemia | SK-MEL-5 melanoma | SF-539 CNS | NCI-H23 lung | M14 melanoma | RPMI-8226 leukemia | NCI-H522 lung | HOP-92 NSCLC | HCT-15 colon | A549 NSCLC | HL-60(TB) leukemia | RXF 393 renal | MDA-MB-231 breast | SW-620 colon | OVCAR-3 ovarian | DU-145 prostate | SK-MEL-28 melanoma | SK-MEL-2 melanoma | HCC-2998 colon | T-47D breast | SR leukemia | KM12 colon | MALME-3M melanoma | CAKI-1 renal | MDA-N | UACC-62 melanoma | MDA-MB-435 | CCRF-CEM leukemia | MCF7 breast | LOX IMVI melanoma | ACHN renal | 786-0 renal | UACC-257 melanoma | NCI-H460 lung | SF-295 CNS | EKVX NSCLC
